Experiment [1] deals with bile duct ligation mediated hepatic fibrosis. Put plainly: Bile Duct Ligation model of liver fibrosis. Format: in vivo, mouse. To be noted: BDL mice, DHX 5 mg/kg i.p. daily from Day 7 for 14 days. As for the experimental part: Bile Duct Ligation: BDL was performed as previously described. Briefly, 8-10 weak old female C57BL/6N underwent either BDL or sham surgery. Mice were anesthetized on Day 0 following IACUC protocol, and the bile duct was ligated using sterile 3/0 silk ligatures. Sham surgery was performed by passing a silk ligature under the bile duct. Starting on Day 7, DHX (5 mg/kg) or vehicle control was administered everyday intraperitoneally (i.p.) for 14 days. Following the final DHX treatment, mice were sacrificed and the livers harvested for analysis of fibrosis.
Histological Scoring: Five μm thick sections were cut from Paraffin embedded lung tissues, and the sections were stained either with hematoxylin and eosin (H&E) or with Masson's Trichrome stain kit (Abcam). […] The severity of interstitial and peribronchiolar lung immature and mature fibrosis was estimated on a numerical scale according to Ashcroft et al. For scoring purposes, all H&E stained slides were systematically scanned at 100× magnification and successive 100× fields were scored. […] The predominant score for each field was recorded. The mean of all scores was calculated for each case. Liver trichrome stained sections were computationally measured using Image J software. […]
Hydroxyproline: Hydroxyproline content was measured using a hydroxyproline assay kit (Biovision) according to the manufacture's instruction with slight modification. […]

Experiment [2] has as its system IMR-90 cells and IPF Patient-Derived Lung fibroblasts. Put plainly: Proliferation and apoptosis-factor expression of lung fibroblasts. The experiment is classed as cell-based, human. As for the experimental part: IPF fibroblast and Normal lung fibroblast co-culture proliferation. Cell are pre-labelled with fluorescent dyes (red and green) and then co-cultured at a Ratio of 1:1 in 96 well plates. Cell counts are determined every 24 hours and plotted as a ratio of IPF/HLF cells. In the control wells the IPF cells outgrow and take over the well. N=2.
Proliferation of lung fibroblasts (IMR-90 cells and IPF Patient-Derived Lung fibroblasts) measured for 4 days in the presence of GPCR agonists ET-1 (100 nM) and LPA (10 μM) (32A, 32B) or growth factors TGFβ (2 ng/mL) and CTGF (100 ng/mL) (32C, 32D)+/−10M DHX. Cells were fixed and counted with DAPI at the end of each day. N=3 technical triplicates. RNA Expression of pro-apoptotic factor BIM (32E, 32F) and anti-apoptotic factor BCL2 (32G, 32H) was assessed following 24 treatment with DHX (10 μM). N=4.

Another experiment concerns pYAP (Ser 127). Nature of the experiment: Western blotting of YAP serine 127 phosphorylation, IMR-90 cells. The note with it: IMR-90, DHX 10 μM, 2 hours. Format: cell-based, human. From the text:
Scale bar represents 100 μm. […] Scale bar represents 100 μm.
On the technique in general: A western blot detects proteins with antibodies after separation by electrophoresis.

A further experiment has as its system YAP/TAZ. Put plainly: YAP/TAZ nuclear localization in IMR-90 and other mesenchymal cells (cardiac, dermal fibroblasts, hepatic stellate cells). The experiment is classed as cell-based, human. The note with it: FIG. 37B.
The subject of the next experiment is NIH-3T3 cells. Nature of the experiment: Matrix Remodeling Measured by Atomic Force Microscopy (NIH-3T3 cell-derived matrix). The experiment is classed as cell-based, mouse. To be noted: TGFβ + ascorbic acid 72 hours, then 10 μM DHX additional 72 hours. As for the experimental part:
Matrix Remodeling Measured by Atomic Force Microscopy: NIH-3T3 cells were plated to confluence onto gelatin coated (Cell Biologics) AFM compatible tissue culture dishes (Willco) in DMEM containing 10% FBS. After cells attached overnight media was replaced with DMEM containing 2% FBS, 2 ng/mL TGFβ, and 20 μg/mL ascorbic acid to promote matrix deposition. After 72 hours, measurements were made using a BioScope Catalyst AFM (Bruker, MA, USA). Microindentations were performed using a 2.5 μm radius sphere-tipped probe (Novascan, IA, USA) with a spring constant determined at ˜100 pN nm^−1 by thermal fluctuation method. For each dish, 3 different areas were analyzed. Force curves were acquired with MIRO 2.0 (NanoScope 9.1; Bruker) at an indentation rate of […] and a ramp size of […] on different points. 75 force curves were performed per cell dish (25 per area). The Young's modulus E was determined by the fitting of force curve by Hertz model using NanoScope Analysis software (Bruker) and considering Poisson's ratio of 0.5. […]
The results above were consistent with DHX not only attenuating key aspects of fibroblast pro-fibrotic activation, but potentially shifting their phenotype toward one that promotes fibrosis clearance and resolution. […] After 72 hours the stiffness of the cells and their cell-derived matrix were measured using atomic force microscopy (AFM). […]

For `Oc1cc2c(cc1O)[C@H]1c3ccccc3CN[C@@H]1CC2` (racemic) [Dihydrexidine, dihydrexidine], in experiment [1], the “collagen deposition (hydroxyproline)” value is listed as “trend toward reduced collagen deposition” and the “histological fibrosis (trichrome)” value is given as “significantly improved histological fibrosis”. Besides, in experiment [2] (24 treatment with DHX (10 μM)), the “RNA expression of pro-apoptotic BIM and anti-apoptotic BCL2” value was “primes lung fibroblasts for apoptosis”. The “proliferation of lung fibroblasts” value in experiment [2] (4 days, with ET-1, LPA, TGFβ or CTGF +/−10M DHX) was “blocks proliferation”. Further, the “YAP serine 127 phosphorylation” value in the experiment on pYAP (Ser 127) was “promoted YAP serine 127 phosphorylation”. For the same compound, the “YAP/TAZ nuclear localization in mesenchymal cells derived from uterine fibroids” value in the experiment on YAP/TAZ was “marginal inhibition of YAP/TAZ nuclear localization”. Also, in the experiment with NIH-3T3 cells, the “stiffness of cells and cell-derived matrix (AFM)” value was “significantly reduced the observed stiffness”.

Source of the values: patent US20240252463A1, “METHODS OF TREATING FIBROTIC PATHOLOGIES” (Mayo Foundation for Medical Education and Research, priority 2018, published 2024).
